Data: patent US10787423B2, “Piperazine and piperidine derivatives, their synthesis and use thereof in inhibiting VDAC oligomerization, apoptosis and mitochondria dysfunction” (THE NATIONAL INSTITUTE FOR BIOTECHNOLOGY IN THE NEGEV LTD., priority 2015, dated 2020)
Where two headings read alike, the source gives them in different places.

Key:
[1] = test system: SHSY5Y cells; assay: 6-hydroxydopamine-induced cell toxicity, XTT cell viability; assay type: cell-based; details: Homo sapiens, SH-SY5Y, 24 h, read-out: concentration giving 50% decrease in cell survival
Experimental: (§1) SHSY5Y (obtained from ATCC) were grown at 37° C. under an atmosphere of 95% air and 5% CO2 in DMEM medium supplemented with 10% fetal bovine serum, 2 mM L-glutamine, 1000 U/ml penicillin, and 1 mg/ml streptomycin until 60-70% of confluence. Further, the cells were incubated with increasing concentrations of 6-hydroxydopamine. After 24 hours, and cells viability was assayed using the XTT (2,3-bis-(2-methoxy-4-nitro-5-sulfophenyl)-2H-tetrazolium-5-carboxanilide) method, according to the supplier instructions. […] The 50% decrease in cell survival was obtained at about 50 μM of 6-hydroxydopamine.
(§2) Cell viability as assayed following 24 h incubation with different concentrations of 6-hydroxydopamine in the absence (closed squares (▪)) or in the presence of VBIT-12 (15 μM, closed circles (●)) is shown.
(§3) Similarly, cells that were incubated with increasing concentrations of VBIT-12 in presence of either 30 or 50 μM of 6-hydroxydopamine that decreased cell viability by […], respectively, remained viable after 24 hours of the incubation. Cells viability is charted in FIG. 24C versus the concentrations of VBIT-12. Closed squares (▪) indicate control group without 6-hydroxydopamine, open circles (◯) indicates cells' viability when exposed to 30 μM of the 6-hydroxydopamine, and closed circles (●) indicate cells viability at 50 μM of the 6-hydroxydopamine.

[2] = as above; assay type: cell-based; details: human, 24 h, read-out: decrease in cell viability
Experimental: as §1, §2, §3

[3] = target: VDAC1 (Homo sapiens, UniProt P21796); assay: Selenite-induced VDAC1 oligomerization by EGS cross-linking and immunoblot in HEK-293 cells (Method B); assay type: cell-based; design: endogenous in cells; host or cells: HEK-293
Experimental: Appropriate test cells (2.5-3 mg/ml) in PBS, were harvested after the treatment and incubated with the cross-linking reagent EGS at a ratio of 100-300 μM for sample of 2-3 mg protein/ml concentration (pH 8.3) for 15 minutes. Protein concentration was determined according to Lowry assay. Samples (60-80 μg protein) were subjected to SDS-PAGE by a standard technique and immunoblotting was performed using anti-VDAC1 antibodies. Gels were electro-transferred onto nitrocellulose membranes for immuno-staining. The membranes were incubated with a blocking solution containing 5% non-fat dry milk and 0.1% Tween-20 in Tris-buffered saline, followed by incubation with monoclonal anti-VDAC1, anti-Cytochrome c, anti-AIF or anti-actin antibodies. Membranes were then incubated with HRP-conjugated anti-mouse or anti-rabbit IgG (1:10,000), serving as secondary antibodies. Antibody labeling was detected by chemiluminescence. To detect VDAC1 oligomers, membranes were treated with 0.1 M glycine, pH 2.0, prior to immunoblotting and washed several times with 0.1% Tween-20 in Tris-buffered saline. Quantitative analysis of immuno-reactive VDAC1 dimer, trimer and multimer bands was performed using FUSION-FX (Vilber Lourmat, France).
The closed circle (●) indicates VBIT-4 (compound of Formula 1), the open circle (◯) indicates compound of Formula 10, and an open square (□) indicates VBIT-3 (compound of Formula 2).
(§4) d. IC50 values of the tested compounds were derived from the obtained data. The results shown correspond to means±SD (n=3).

[4] = test system: Cyto c release from mitochondria; assay: Selenite-induced Cytochrome c release from mitochondria in HEK-293 cells; assay type: cell-based; details: Homo sapiens, HEK293, compound 2 h then selenite 15 μM 4 h, means±SD (n=3)
Experimental: One of the ways cell apoptosis is activated is by release of Cytochrome c (Cyto c) from the mitochondria into cytosol. […] Cyto c released to the cytosol may be analyzed by immunoblotting using Cyto c-specific antibodies.
Cells treated with apoptosis inducers in the absence or presence of the tested compounds were harvested, washed twice with PBS, pH 7.4 and gently resuspended at 6 mg/ml in ice-cold buffer (100 mM KCl, 2.5 mM MgCl2, 250 mM sucrose, 20 mM HEPES/KOH pH 7.5, 0.2 mM EDTA, 1 mM dithiothreitol, 1 μg/ml leupeptin, […] and 0.1 mM PMSF) containing 0.025% digitonin and incubated for 10 min on ice. Samples were centrifuged at 10,000×g (relative centrifugal force—RCF) at 4° C. for 5 min to obtain supernatants (cytosolic extracts free of mitochondria) and pellet (fraction that contains mitochondria). Cytochrome c released to the cytosol was analyzed by immunoblotting using Cytochrome c-specific antibodies. Anti-VDAC1 and anti-GAPDH antibodies were used to verify that the cytosolic extracts are mitochondria-free.
c. Cytochrome c (Cyto c) release was determined as described above in Methods (Cytochrome c release from mitochondria). Briefly, to assess Cyto c release, cells were incubated on ice for 10 min with 0.025% digitonin, centrifuged, and the pellet (mitochondria—Mito) and supernatants (cytosol—Cytos) were subjected to SDS-PAGE and immunoblotting, using anti-Cyto c, antibodies. Anti-VDAC1 and anti-GAPDH antibodies were used to verify that the cytosolic extracts are mitochondria-free. The results of Cyto c release from the mitochondria as induced by selenite are presented as immunoblots, with the cytosolic and mitochondrial fractions confirmed by immunoblotting of GAPDH (glyceraldehyde-3-phosphate dehydrogenase) and VDAC1, respectively, in the FIG. 15d. The data are presented as percent inhibition. The results shown correspond to means±SD (n=3). The closed circle (●) indicates VBIT-4 (compound of Formula 1), the open circle (◯) indicates compound of Formula 10 (AKOS-022), and an open square (□) indicates VBIT-3 (compound of Formula 2).
d. […]

[5] = test system: HEK-293 cells; assay: Selenite-induced apoptosis, annexin V-FITC/PI staining and FACS, HEK-293 cells; assay type: cell-based; details: Homo sapiens, HEK293, compound 2 h then selenite 15 μM 4 h, means±SD (n=3)
Experimental: The ability of the compounds of general Formulae (I), (Ia), (Ib), (Ic), (Id), (II) and (IIa) to inhibit apoptosis may be analyzed by annexin-V/propidium iodide (PI) staining and flow cytometry.
Cells, e.g. HeLa cells (2×10^5), untreated or treated with apoptosis-inducing reagents, were analyzed for apoptotic cell death using PI, annexin V-FITC and flow cytometer analysis. Cells were collected (1500×g for 10 min), washed, and resuspended in 200 μl binding buffer (10 mM HEPES/NaOH, pH 7.4, 140 mM NaCl, and 2.5 mM CaCl2). Annexin V-FITC was added according to the recommended Protocol (Enzo Life Sciences, Switzerland), and the cells were incubated in the dark for 15 min. Cells were then washed with binding buffer and resuspended in 200 μl binding buffer, to which PI was added immediately before flow cytometry analysis. At least 10,000 events were collected, recorded on a dot plot, and analyzed by the FACSCalibur™ flow cytometer software (BD Biosciences, Franklin Lakes, N.J.).
b. Additionally, the inhibition of selenite-induced apoptosis by the compounds as analyzed using annexin V-FITC/PI staining and FACS, presented in the FIG. 15c.
as §4

[6] = target: T1, purified VDAC1 (Rattus norvegicus, UniProt Q9Z2L0); assay: Microscale thermophoresis (MST) binding to purified VDAC1
T1 construct: rat liver mitochondria (5 mg/ml) in 10 mM Tris-HCl, pH 7.2, were incubated with 2% LDAO; from tissue; host or cells: rat liver mitochondria
Experimental: To obtain quantitative parameters of this interaction and derive a dissociation constant, e.g. a microscale thermophoresis (MST) interaction assay may be performed. In this manner, dissociation values are derived from the curves showing the affinity of the compounds of the invention to VDAC.
Briefly, rat liver mitochondria (5 mg/ml) in 10 mM Tris-HCl, pH 7.2, were incubated with 2% LDAO at 0° C. for 20 min, followed by centrifugation (30 min, 14,000 g) and the obtained supernatant was loaded onto a dry celite:hydroxyapatite (2:1) column. VDAC1 was eluted with a solution containing 2% LDAO, 10 mM Tris-HCl, pH 7.2, 50 mM NaCl, and 20 to 22 mM NaH2PO4, with VDAC1 detection by Coomassie blue staining. The VDAC1-containing fractions were dialyzed against 10 mM Tris-HCl, pH 7.2, and subjected to a second chromatography step on a carboxymethyl-cellulose (CMC) column from which VDAC1 was eluted with a solution containing 10 mM Tris-HCl, pH 7.2, 0.1% LDAO and 500 mM NaCl, detected as above. The VDAC1-containing fractions were collected and used for VDAC1 channel conductance and MST assays.
MST analysis was performed using a NanoTemper Monolith NT.115 apparatus. […]
Purified VDAC1 (133 nM), labeled using the NanoTemper fluorescent protein-labeling Kit BLUE (Nano Temper technologies, Munich, Germany), according to the manufactory instructions, was incubated with increasing concentrations of the following tested compounds: compound of Formula 10 (AKOS-022), compound of Formula 2 (VBIT-3), or racemic compound of Formula 1 (VBIT-4). After 20 min of incubation, the samples (3-5 μL) were loaded into MST-grade glass capillaries (Monolith NT Capillaries), and the thermophoresis process was measured using the Monolith-NT115 apparatus.
Fmax and Fmin represent the maximal and minimal fluorescence, respectively and F the fluorescence measured in the presence of the tested compound.
VDAC1 binding affinities of tested compounds were calculated from the MST measurements.

[7] = IC50 for several activities / effective range (activity not specified); details: quoted for comparison with brain levels
[8] = Brain penetration after oral gavage, HPLC/MS of brain extracts; assay type: in vivo, C57BL/6 mice; details: for concentration at 12 h / concentration at 24 h: C57BL/6, mouse, brain, oral, 50 mg/kg, mouse, read-out: Compounds in brain extract
Experimental: C57BL/6 mice ([…]) were used. The animals received treatments with either free compounds of Formulae 1 and 10, or encapsulated compounds, prepared according to the Examples 16 and 17. Doses as indicated in the Table 4 below were administered in phosphate-buffered saline (PBS) through an oral gavage. After 12 hours and 24 hours, randomly selected mice from each group were sacrificed, their brains collected and stored in −80° C. The concentrations of the compounds in the tissues were determined by HPLC/MS analysis.
Tissue samples were homogenized in phosphate-buffered saline solution, then diluted with acetonitrile to 50% v/v, centrifuged at 10,000 g for 10 minutes, and supernatants were analyzed. The compounds concentrations in the brain extracts were determined from calibration curves. The results were the averaged from 2 mice for each treatment group/time point.

[9] = 50 mg/kg in PLGA nanoparticles, oral gavage
[10] = 50 mg/kg oral gavage, free compound

Sequence of VDAC1 (P21796 whole entry): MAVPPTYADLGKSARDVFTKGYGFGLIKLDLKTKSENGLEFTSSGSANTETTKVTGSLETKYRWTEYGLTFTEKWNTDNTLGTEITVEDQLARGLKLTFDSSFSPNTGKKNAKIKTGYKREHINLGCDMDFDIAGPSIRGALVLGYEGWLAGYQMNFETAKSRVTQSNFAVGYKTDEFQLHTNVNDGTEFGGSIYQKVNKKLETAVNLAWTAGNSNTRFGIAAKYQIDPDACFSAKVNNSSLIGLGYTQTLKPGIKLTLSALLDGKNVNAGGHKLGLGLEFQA
T1 sequence (Q9Z2L0 whole entry): as the sequence (P21796 whole entry) above, with T55N, M129V, A160S, I227V counted along it

Row | Compound | 6-hydroxydopamine concentration giving 50% decrease in cell survival [1] | cytotoxicity at 24 h, 30 μM ([2]; 30 μM 6-hydroxydopamine) | cytotoxicity at 24 h, 50 μM ([2]; 50 μM 6-hydroxydopamine) | IC50 ([3]; HEK-293 cells, compound 2 h then selenite 15 μM 4 h, means±SD (n=3), read-out: VDAC1 oligomerization IC50) | IC50 [4] | IC50 [5] | Kd ([6]; MST, purified VDAC1 133 nM, 20 min incubation, means±SD (n=3), read-out: VDAC1 binding affinities) | IC50 [7] | concentration at 12 h [8, 9] | concentration at 24 h [8, 9] | concentration at 12 h [8, 10] | concentration at 24 h [8, 10] | brain penetration ([8]; given orally, in solution or encapsulated in PLGA nano-particles) | IC50 [3] | Kd [6]
1 | NCCc1cc(O)c(O)cc1O [6-hydroxydopamine, reference compound] | ~50 µM | 90% | 95% | – | – | – | – | – | – | – | – | – | – | – | –
2 | O=C1CC(N2CCN(c3ccc(OC(F)(F)F)cc3)CC2)C(=O)N1c1ccc(Cl)cc1 (centres unmarked) [Formula 2, 1-(4-chlorophenyl)-3-(4-(4-(trifluoromethoxy)phenyl)piperazin-1-yl)pyrrolidine-2,5-dione] | – | – | – | 8.8 ± 0.56 µM | 6.6 ± 1.03 µM | 7.5 ± 0.27 µM | 31.3 ± 1.7 µM | – | – | – | – | – | – | – | –
3 | O=C1CC(N2CCC(Nc3ccc(OC(F)(F)F)cc3)CC2)C(=O)N1c1ccc(Cl)cc1 (centres unmarked) [Formula 10] | – | – | – | – | 3.6 ± 0.4 µM | 3.4 ± 0.2 µM | – | 1 µM | 4.36 ± 0.148 µM | 2.8 ± 1.19 µM | 4.2 ± 0.714 µM | 1.24 ± 0.23 µM | reached the brain | 3.3 ± 0.18 µM | 15.4 ± 2.9 µM
